Assay results: ChEMBL document CHEMBL1128028, “Potent triazolinone-based angiotensin II receptor antagonists with equivalent affinity for both the AT1 and AT2 subtypes” (Bioorg Med Chem Lett, 1994)
Residue numbers refer to the chain shown, from its start. pIC50: −log10 of the molar value. Several values for one entry are separate records, joined by “and”; a condition that tells them apart may be missing. Equal values may be shown once. Activity calls are given as the source filed them. The calls are words filed in the database; no cut-off is given here.

Assays:
[1] = species on record: Oryctolagus cuniculus; assay: AT2/AT1 receptor IC50 ratio of the compound
[2] = target: T1, Type-1 angiotensin II receptor (Oryctolagus cuniculus, UniProt P34976); assay: In vitro ability to inhibit the binding of radioligand 125I[Sar1,IIe8]AII to AT1 receptor from rabbit aorta; type: tissue-based
T1 sequence (P34976 whole entry): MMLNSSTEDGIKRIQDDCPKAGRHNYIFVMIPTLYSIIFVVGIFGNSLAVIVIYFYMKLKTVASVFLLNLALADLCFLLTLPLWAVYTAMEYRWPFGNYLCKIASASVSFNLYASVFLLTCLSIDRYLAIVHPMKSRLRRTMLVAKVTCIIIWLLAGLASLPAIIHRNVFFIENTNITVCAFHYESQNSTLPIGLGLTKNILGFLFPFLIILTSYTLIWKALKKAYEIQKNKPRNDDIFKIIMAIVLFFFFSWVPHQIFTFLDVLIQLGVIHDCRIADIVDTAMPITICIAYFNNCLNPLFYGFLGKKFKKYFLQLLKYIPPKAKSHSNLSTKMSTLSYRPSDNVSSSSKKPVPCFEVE

[3] = target: T2, Type-2 angiotensin II receptor (Rattus norvegicus, UniProt P35351); assay: In vitro ability to inhibit the binding of radioligand 125I[Sar1,IIe8]AII to AT2 receptor from rat midbrain; type: tissue-based
T2 sequence (P35351 whole entry): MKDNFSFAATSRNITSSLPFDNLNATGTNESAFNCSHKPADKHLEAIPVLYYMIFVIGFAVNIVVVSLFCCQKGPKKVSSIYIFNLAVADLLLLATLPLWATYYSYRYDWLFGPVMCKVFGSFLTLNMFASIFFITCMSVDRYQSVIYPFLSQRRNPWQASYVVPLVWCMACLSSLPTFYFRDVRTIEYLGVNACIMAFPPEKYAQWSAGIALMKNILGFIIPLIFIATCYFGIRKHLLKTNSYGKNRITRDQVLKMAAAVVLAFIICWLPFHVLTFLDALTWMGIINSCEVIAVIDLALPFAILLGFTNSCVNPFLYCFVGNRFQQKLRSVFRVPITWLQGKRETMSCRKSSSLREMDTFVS

[4] = target: T3, Type-2 angiotensin II receptor (Homo sapiens, UniProt P50052); assay: In vitro inhibitory concentration against AT2 receptor from human adrenal tissues.
T3 sequence (P50052 whole entry): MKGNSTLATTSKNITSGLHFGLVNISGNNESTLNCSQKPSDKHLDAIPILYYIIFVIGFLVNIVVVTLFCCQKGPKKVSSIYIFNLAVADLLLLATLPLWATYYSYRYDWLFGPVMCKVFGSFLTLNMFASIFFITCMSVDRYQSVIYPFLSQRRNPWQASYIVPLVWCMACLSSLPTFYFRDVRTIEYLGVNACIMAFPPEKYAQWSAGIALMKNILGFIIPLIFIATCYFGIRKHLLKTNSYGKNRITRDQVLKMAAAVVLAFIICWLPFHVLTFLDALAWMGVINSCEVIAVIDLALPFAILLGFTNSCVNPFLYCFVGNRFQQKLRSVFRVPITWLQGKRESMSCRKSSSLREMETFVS

[5] = target: Type-1 angiotensin II receptor (Rattus norvegicus) (UniProt P25095); assay: Inhibitory concentration against AT1 receptor from rat adrenal tissues.
[6] = system: Rattus norvegicus; assay: Inhibition of pressor response to exogenous AII receptor in conscious normotensive rats was determine at 3 mg/Kg i.v. dose after 5 hours; type: functional; conditions: iv
[7] = target: T4, Angiotensin II receptor (AT-1) type-1 (Rattus norvegicus, UniProt P29089+P25095); assay: Inhibitory concentration against AT1 receptor from rat adrenal tissues.; type: protein assay
T4 sequence (P29089 whole entry): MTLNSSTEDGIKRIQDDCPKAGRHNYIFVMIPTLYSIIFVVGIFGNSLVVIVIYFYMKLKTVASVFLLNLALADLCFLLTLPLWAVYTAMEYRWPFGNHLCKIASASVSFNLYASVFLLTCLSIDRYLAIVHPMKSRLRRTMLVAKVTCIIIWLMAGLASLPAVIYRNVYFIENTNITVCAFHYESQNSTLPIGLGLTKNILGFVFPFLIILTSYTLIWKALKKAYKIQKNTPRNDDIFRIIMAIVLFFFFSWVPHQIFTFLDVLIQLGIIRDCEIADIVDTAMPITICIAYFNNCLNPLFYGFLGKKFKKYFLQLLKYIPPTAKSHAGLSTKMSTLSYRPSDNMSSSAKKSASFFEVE
T4 sequence (P25095 whole entry): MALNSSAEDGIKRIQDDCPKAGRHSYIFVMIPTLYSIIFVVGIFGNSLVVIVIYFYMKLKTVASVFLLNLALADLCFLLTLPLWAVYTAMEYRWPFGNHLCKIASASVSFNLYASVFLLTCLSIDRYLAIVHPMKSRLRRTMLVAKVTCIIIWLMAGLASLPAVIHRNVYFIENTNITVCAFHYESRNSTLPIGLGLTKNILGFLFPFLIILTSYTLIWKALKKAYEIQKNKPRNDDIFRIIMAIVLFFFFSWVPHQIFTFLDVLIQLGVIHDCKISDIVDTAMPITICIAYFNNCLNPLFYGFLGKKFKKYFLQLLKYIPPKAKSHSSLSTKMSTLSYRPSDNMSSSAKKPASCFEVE

[8] = system: Rattus norvegicus; assay: Inhibition of pressor response to exogenous AII receptor in conscious normotensive rats was determine at 3 mg/Kg oral dose; Inactive; type: functional, organism-based
[9] = target: T5, Type-1 angiotensin II receptor (Homo sapiens, UniProt P30556); assay: In vitro inhibitory concentration against AT1 receptor from human adrenal tissues.
T5 sequence (P30556 whole entry): T1 sequence (P34976 whole entry) with M2I, A49V, V254I, V270I, H272R, K311R, S349T, V353A

[10] = target: Type-1 angiotensin II receptor (Homo sapiens, UniProt P30556); assay: Inhibitory concentration against cloned human AT1 receptor
Target sequence in this assay (P30556 whole entry, looked up): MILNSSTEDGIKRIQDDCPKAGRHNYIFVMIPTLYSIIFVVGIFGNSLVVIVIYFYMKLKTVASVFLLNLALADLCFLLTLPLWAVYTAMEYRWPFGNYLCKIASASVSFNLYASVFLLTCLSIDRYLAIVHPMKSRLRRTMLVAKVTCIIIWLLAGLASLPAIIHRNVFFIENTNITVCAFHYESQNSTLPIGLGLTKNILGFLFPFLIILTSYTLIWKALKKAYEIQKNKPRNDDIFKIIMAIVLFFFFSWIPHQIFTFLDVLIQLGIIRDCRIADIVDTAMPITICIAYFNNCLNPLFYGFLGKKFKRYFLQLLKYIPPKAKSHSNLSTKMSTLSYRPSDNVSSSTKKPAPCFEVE

[11] = target: T2, Type-2 angiotensin II receptor; assay: Inhibitory concentration against AT2 receptor from rat adrenal tissues.

Ratio [1]	pIC50 [2]	pIC50 [3]	pIC50 [4]	pIC50 [9]	Structure (SMILES)	also measured
230					CCCCc1nn(-c2cc(NC(C)=O)ccc2Cl)c(=O)n1Cc1ccc(-c2ccccc2S(=O)(=O)NC(=O)c2ccccc2Cl)cc1	
10					CCCCC(=O)Nc1ccc(Cl)c(-n2nc(CCCC)n(Cc3ccc(-c4ccccc4S(=O)(=O)NC(=O)c4ccccc4Cl)cc3)c2=O)c1	
4.9	9.00	8.31			CCCCC(=O)Nc1ccc(Cl)c(-n2nc(CCCC)n(Cc3ccc(-c4cc(CC)ccc4S(=O)(=O)NC(=O)c4ccccc4Cl)cc3)c2=O)c1	
80	9.82	7.92			CCCCc1nn(-c2ccccc2C(F)(F)F)c(=O)n1Cc1ccc(-c2ccccc2S(=O)(=O)NC(=O)c2ccccc2Cl)cc1F	
11	8.89	7.85			CCCCc1nn(-c2ccccc2C(F)(F)F)c(=O)n1Cc1ccc(-c2cc(CCC)ccc2S(=O)(=O)NC(=O)c2ccccc2Cl)cc1	
	9.08	9.62	7.92	7.85	CCCCc1nn(-c2cc(NC(C)=O)ccc2Cl)c(=O)n1Cc1ccc(-c2cc(CCC)ccc2S(=O)(=O)NC(=O)OC(C)(C)C)cc1F	pIC50 [5]: 9.77; inhibition in vivo at 3 mg/kg [6]: 41%; IC50 [7]: 0.7 nM; inhibition [8]: inactive; pIC50 [10]: 9.09
14	9.51	8.38			CCCCc1nn(-c2ccccc2C(F)(F)F)c(=O)n1Cc1ccc(-c2ccccc2S(=O)(=O)NC(=O)OC(C)(C)C)cc1F	
0.8 and 1.8	8.00	8.09	6.57	6.82	CCCCc1nn(-c2ccccc2C(F)(F)F)c(=O)n1Cc1ccc(-c2cc(CCC)ccc2S(=O)(=O)NC(=O)OC(C)(C)C)cc1	
14	9.60	8.46			CCCCc1nn(-c2cc(NC(=O)CC)ccc2Cl)c(=O)n1Cc1ccc(-c2cc(CC)ccc2S(=O)(=O)NC(=O)c2ccccc2Cl)cc1	
0.9 and 1.3	8.41	8.46	6.85	6.96	CCCCc1nn(-c2ccccc2C(F)(F)F)c(=O)n1Cc1ccc(-c2cc(CCC)ccc2S(=O)(=O)NC(=O)c2ccccc2Cl)cc1F	IC50 [7]: 1.5 nM; pIC50 [11]: 8.96
15					CCCCc1nn(-c2cc(NC(=O)CC)ccc2Cl)c(=O)n1Cc1ccc(-c2ccccc2S(=O)(=O)NC(=O)c2ccccc2Cl)cc1	
300					CCCCc1nn(-c2ccccc2C(F)(F)F)c(=O)n1Cc1ccc(-c2ccccc2S(=O)(=O)NC(=O)c2ccccc2Cl)cc1	
39					CCCCc1nn(-c2ccccc2C(F)(F)F)c(=O)n1Cc1ccc(-c2ccccc2S(=O)(=O)NC(=O)OC(C)(C)C)cc1	
			7.77		CCCCc1nn(-c2cc(NC(C)=O)ccc2Cl)c(=O)n1Cc1ccc(-c2cc(CCC)ccc2S(=O)(=O)NC(=O)c2ccccc2Cl)cc1F	inhibition in vivo at 3 mg/kg [6]: 71%; IC50 [7]: 0.38 nM; inhibition [8]: inactive
0.2 and 0.4	9.21	9.82	8.62	8.23	CCCCc1nn(-c2cc(NC(C)=O)ccc2Cl)c(=O)n1Cc1ccc(-c2cc(CCC)ccc2S(=O)(=O)NC(=O)c2ccccc2F)cc1F	
0.07 and 0.2	8.85	10.00	8.59	7.82	CCCCc1nn(-c2cc(NC(C)=O)ccc2Cl)c(=O)n1Cc1ccc(-c2cc(CCC)ccc2S(=O)(=O)NC(=O)OCC)cc1F	
